Reference: US4603142A, “Cholesterol lowering method of use” (Wisconsin Alumni Research Foundation, priority 1984, dated 1986)

Biological target: T1, HMG-CoA reductase (Homo sapiens, UniProt P04035)
T1 sequence (P04035 1-888): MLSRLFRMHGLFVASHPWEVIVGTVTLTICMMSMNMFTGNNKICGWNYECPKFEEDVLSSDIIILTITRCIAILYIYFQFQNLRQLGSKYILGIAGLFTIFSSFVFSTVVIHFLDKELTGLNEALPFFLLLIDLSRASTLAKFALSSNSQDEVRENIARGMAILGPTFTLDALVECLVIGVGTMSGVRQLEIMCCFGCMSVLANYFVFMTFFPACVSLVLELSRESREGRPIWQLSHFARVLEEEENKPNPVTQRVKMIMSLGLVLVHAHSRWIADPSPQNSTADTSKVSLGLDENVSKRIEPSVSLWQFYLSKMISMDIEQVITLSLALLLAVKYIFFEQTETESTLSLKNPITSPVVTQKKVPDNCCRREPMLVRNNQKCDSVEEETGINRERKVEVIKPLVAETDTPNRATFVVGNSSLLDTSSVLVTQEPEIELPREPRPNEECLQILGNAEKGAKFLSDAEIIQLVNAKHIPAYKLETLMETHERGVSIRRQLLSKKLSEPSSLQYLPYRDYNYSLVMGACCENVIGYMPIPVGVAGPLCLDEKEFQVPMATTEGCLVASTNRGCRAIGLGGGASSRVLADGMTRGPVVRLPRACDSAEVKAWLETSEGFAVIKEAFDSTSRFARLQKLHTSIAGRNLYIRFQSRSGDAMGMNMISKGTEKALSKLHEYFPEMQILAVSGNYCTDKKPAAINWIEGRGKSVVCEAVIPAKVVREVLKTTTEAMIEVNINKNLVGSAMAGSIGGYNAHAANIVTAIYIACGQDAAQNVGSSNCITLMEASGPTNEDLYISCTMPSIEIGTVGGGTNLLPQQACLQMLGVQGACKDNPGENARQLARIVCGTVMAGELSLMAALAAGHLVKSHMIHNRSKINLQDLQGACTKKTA
Test: Hepatic HMG-CoA reductase activity in 3-week-old broiler male chickens fed supplemented corn diet
Type: in vivo, chicken
Design: preparing subcellular fractions of liver and assay procedures for beta-hydroxy-beta-methylglutaryl coenzyme A (HMG Co-A) reductase; from tissue; host or cells: chicken liver (microsomal fraction)
Conditions: liver; for HMG-CoA Reductase: mean ± SD, N = 9
Excerpt: These responses were attributed to the presence in the small grains of relatively high concentrations of beta-D-glucans and pentosans. A long-standing interest in lipid metabolism prompted us to examine certain lipogenic and cholesterolgenic enzymes in the tissues of these birds. Methods used for handling blood samples, preparing subcellular fractions of liver and assay procedures for beta-hydroxy-beta-methylglutaryl coenzyme A (HMG Co-A) reductase, fatty acid synthetase (FAS), plasma cholesterol and triglycerides and the statistical treatment of the data have been described [Qureshi AA et al. (1980): Regulation of lipid metabolism in chicken livers by dietary cereals, J Nutr 110:388-393].
For large scale preparation of these compounds, 10 grams of the petroleum ether soluble fraction of HPBF were dissolved in 10 ml petroleum ether and applied to a 90×3.5 cm silicic acid column (Bio-Silica, 100-200 mesh). The column was washed with 2,500 ml petroleum ether followed by stepwise elution with increasing amounts of ether in petroleum ether. Fraction 8 of the column corresponded to HPLC fraction 5. A concentration-dependent suppression of HMG Co-A reductase activity and enhancement of FAS activity was noted within this range. Serum total and LDL cholesterol levels also fell in a dose-dependent response. […] In a companion experiment, using the same control birds, the effect of cholesterol inhibitor I at 5 ppm is compared to the effect of the petroleum ether solubles of HPBF at 20% equivalent on weight gain, HMG Co-A reductase and FAS activities, serum cholesterol and serum triglyceride levels (Table 2). […] Serum triglyceride levels reflected the influence of the diet on FAS activity. […] Cholesterol inhibitor I was a more powerful suppressor of LDL cholesterol (Table 2).
^1 Feeding period was 3 weeks; Time of killing was 0800; Data
expressed as mean ± SD; N = 9 chickens per group; HMGCoA reductase =
hydroxy-methyl-Glutaryl-Coenzyme A reductase.
^2 pmoles of mevalonic acid synthesized per minute per mg of […]

[1] = 2.5 ppm in corn diet, fed 3 weeks
[2] = 5.0 ppm in corn diet, fed 3 weeks
[3] = 10.0 ppm in corn diet, fed 3 weeks
[4] = 15.0 ppm in corn diet, fed 3 weeks
[5] = 20.0 ppm in corn diet, fed 3 weeks

HMG-CoA Reductase, percentage of control [1]: 87 Percentage of respective contr
HMG-CoA Reductase [1]: 172 ± 12 pmoles of mevalonic acid synth
HMG-CoA Reductase, percentage of control [2]: 81 Percentage of respective contr
HMG-CoA Reductase [2]: 161 ± 12 pmoles of mevalonic acid synth
HMG-CoA Reductase, percentage of control [3]: 73 Percentage of respective contr
HMG-CoA Reductase [3]: 144 ± 9 pmoles of mevalonic acid synth
HMG-CoA Reductase, percentage of control [4]: 68 Percentage of respective contr
HMG-CoA Reductase [4]: 135 ± 8 pmoles of mevalonic acid synth
HMG-CoA Reductase, percentage of control [5]: 66 Percentage of respective contr
HMG-CoA Reductase [5]: 130 ± 6 pmoles of mevalonic acid synth
HMG-CoA Reductase (corn diet + 5 ppm (Table 2)): 134 ± 6 pmoles of mevalonic synthesize
SMILES: CC(C)=CCC/C(C)=C/CC/C(C)=C/CC[C@]1(C)CCc2c(C)c(O)c(C)c(C)c2O1 [Cholesterol inhibitor I, 2,5,7,8-tetramethyl-2 (4,8, 12-trimethyltrideca-3,7, 11-trienyl)chroman-6-ol]
